For one assay, the system named is Tumor organoids. The assay is described as follows: Treatment of mouse tumor organoids with N-acyl amides, end-point viability by CellTiter-Glo. Type of assay: cell-based, mice. The note with it: for IC50: mouse tumor organoids, viability 3 days post-drug addition, CellTiter-Glo, triplicate; for liver cancer growth and/or survival: tumor organoid dose-response curves, FIG. 7. Here is the method:
Tumor organoids were prepared from the animal model described in Example 1 (i.e. tissue from control animals was isolated at 24 weeks and tumor organoids prepared therefrom). Tumor organoids were generated according to protocols known in the art (Broutier, L., Andersson-Rolf, A., Hindley, C J., Boj, S F., Clevers, H., et al., Culture and establishment of self-renewing human and mouse adult liver and pancreas 3D organoids and their genetic manipulation. Nat Protoc. 2016. 11(9): 1724-43 and Broutier, L. Mastrogiovanni, G., Verstegen, M M., Francies, H E., Gavarro, L M., et al., Human primary liver cancer-derived organoid cultures for disease modeling and drug screening. Nat Med. 2017 23(12): 1424-1435). Liver biopsies were digested in sterile PBS containing 0.125 mg/mL collagenase IV, 0.125 mg/mL dispase II, and 0.1 mg/mL DNaseI. Digestions were performed at 37° C. for at least 4 hours. Tissue dissociate was filtered through a 70 μm strainer and washed with basal media (Advanced DMEM/F12, 1% L-glutamine, 1% penstrep, 1 mM HEPES). Cells were counted, washed, and resuspended at 50,000 cells/50 μL matrigel. 50 μL matrigel droplets were plated in 24-well plates and allowed to polymerize for 15 minutes at 37° C. Tumor dissociate was cultured in tumor media (basal media, 1:50 B27, 1 mM N-acetylcysteine, 10 mM nicotinamide, 10 nM recombinant human [Leu^15]-gastrin I, 50 ng/mL recombinant murine EGF, 100 ng/mL recombinant human FGF10, and 50 ng/mL recombinant human HGF) until organoids formed. To passage, organoids were removed from matrigel in basal media, spun down at 300 g for 5 minutes, mechanically broken via passage through a 21 g needle, washed in basal media, and re-plated in matrigel.
96-wells plates were coated with a 50:50 solution of matrigel:basal media, which was allowed to polymerize for 15 minutes at 37° C. Tumor organoids were mechanically broken as described above, counted, and seeded at 1,000 cells/well in tumor media. Following overnight incubation, serial drug dilutions were added to the tumor organoids. […] End-point viability was analyzed 3-days post-drug addition using CellTiter-Glo. Each treatment was performed in triplicate.
Background: ATP-based viability assays read luminescence as a measure of living cells.

For assay [1], the system named is Human hepatocellular cancer (HCC) organoids. The assay is described as follows: Treatment of human HCC and cholangiocarcinoma organoids, anti-tumor effects. Type of assay: cell-based. Particulars: triplicate. Here is the method: Human hepatocellular cancer (HCC) organoids were prepared from patients with non alcoholic steatohpepatitis (NASH), hepatitis B virus (HBV) and hepatitis C virus (HCV). The HCC organoids were generated according to protocols known in the art (Broutier, L., Andersson-Rolf, A., Hindley, C J., Boj, S F., Clevers, H., et al., Culture and establishment of self-renewing human and mouse adult liver and pancreas 3D organoids and their genetic manipulation. Nat Protoc. 2016. 11(9): 1724-43 and Broutier, L. Mastrogiovanni, G., Verstegen, M M., Francies, H E., Gavarro, L M., et al., Human primary liver cancer-derived organoid cultures for disease modeling and drug screening. Nat Med. 2017 23(12): 1424-1435). Organoids were also prepared from a single patient with cholangiocarcinoma (ICC). N-oleoyl serinol and N-oleoyl glycine were assayed for anti-tumor effects. Each treatment was performed in triplicate. […] N-oleoyl serinol was active specifically against HCCC organoids from patients with NASH.

In the assay on Tumor organoids (72 h), `CCCCCCCC/C=C\CCCCCCCC(=O)NCCO` [N-oleoyl ethanolamide, reference compound] had an IC50 of 126 nM. Moreover, the “liver cancer growth and/or survival” value with Tumor organoids is given as “inhibit or reduce”.
`CCCCCCCC/C=C\CCCCCCCC(=O)NCC(=O)O` [N-oleoyl glycine]: the half-maximal inhibitory concentration (IC50) in the assay with Tumor organoids (72 h) is above 100000 nM. In addition, in assay [1] (all organoid cell lines (HCC from NASH, HBV, HCV patients; cholangiocarcinoma)), the anti-tumor effects entry is “inactive”.
`CCCCCCCC/C=C\CCCCCCCC(=O)NC(CO)CO` [N-oleoyl serinol]: the IC50 in the assay with Tumor organoids (72 h) was 33.3 nM. Also, the “liver cancer growth and/or survival” value in the assay with Tumor organoids is “inhibit or reduce”. The anti-tumor effects entry in assay [1] (HCC organoids from patients with NASH) is on record as “active”.
On to `CCCCCCCCCCCCCCCC(=O)NCC(=O)O` [N-palmitoyl glycine], for which the IC50 with Tumor organoids was above 100000 nM.
The molecule `CCCCCCCCCCCCCCCC(=O)NC(CO)CO` [palmitoyl serinol] had a half-inhibitory concentration (IC50) in the assay with Tumor organoids (72 h) above 100000 nM.

The IC50 is the concentration that inhibits the measured activity by half. Higher therefore signals lower potency.

For the origin of these results see patent US20240207329A1, “METHODS OF TREATING ADENOCARCINOMA WITH HUMAN MICROBIOTA DERIVED N-ACYL AMIDES” (ICAHN SCHOOL OF MEDICINE AT MOUNT SINAI, priority 2021, published 2024).
